Measured values reported in patent publication US12180187B2, “1-phenyl-5-azinylpyrazolyl-3-oxyalkyl acids and their use for controlling unwanted plant growth” (BAYER AKTIENGESELLSCHAFT, priority 2019, dated 2024).

Columns and labels:
[1] = tested on: POAAN; assay: Post-emergence action against POAAN, 1.28 kg/ha; format: in vivo, Poa annua; conditions: dosage 1280 g/ha, visual rating about 3 weeks after treatment vs untreated controls
How it was run: (§1)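 Weeds grown in sandy loam in a greenhouse were sprayed at the one-leaf stage, 2–3 weeks after sowing, with WP or EC formulations in water containing 0.5% additive at 600 L/ha. About 3 weeks later, damage was scored visually versus untreated controls (0% = like control, 100% = dead).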

[2] = tested on: POAAN; assay: Pre-emergence action against POAAN, 1280 g/ha; format: in vivo, Poa annua; conditions: visual scoring after about 3 weeks vs untreated controls, 100% = plants have died, 0% = like control plants
How it was run: (§2)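 Soil-surface application after sowing, before emergence: WP or EC formulations in water with 0.5% additive, 600 litres per hectare, onto sandy loam pots. Damage rated visually in % relative to untreated plants after roughly 3 weeks in a greenhouse.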

[3] = tested on: AMARE; assay: Pre-emergence action against AMARE, 1280 g/ha; format: in vivo, Amaranthus retroflexus; conditions: scored visually after about 3 weeks vs untreated controls (100% = plants have died)
How it was run: as §2

[4] = tested on: ABUTH; assay: Post-emergence action against ABUTH, 1.28 kg/ha; format: in vivo, Abutilon theophrasti; conditions: dosage 1280 g/ha, visual rating about 3 weeks after treatment vs untreated controls (100% = plants died)
How it was run: as §1

[5] = tested on: MATIN; assay: Post-emergence action against MATIN, 1.28 kg/ha; format: in vivo, Tripleurospermum inodorum (Matricaria inodora); conditions: dosage 1280 g/ha, visual rating about 3 weeks after treatment vs untreated controls (100% = plants died)
How it was run: as §1

[6] = tested on: LOLRI; assay: Post-emergence action against LOLRI, 1.28 kg/ha; format: in vivo, Lolium rigidum; conditions: dosage 1280 g/ha, visual rating about 3 weeks after treatment vs untreated controls
How it was run: as §1

[7] = tested on: MATIN; assay: Pre-emergence action at 320 g/ha against MATIN; format: in vivo, Tripleurospermum inodorum (Matricaria inodora); conditions: visual scoring after about 3 weeks vs untreated controls
How it was run: (§3)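 Weed and crop seeds sown in pots and covered with soil; WP or EC formulations sprayed pre-emergence onto the soil surface at 320 g/ha with 0.5% additive in 600 l/ha water. Kept in greenhouse; after about 3 weeks activity scored visually as % versus untreated controls (100% = plants dead, 0% = as control).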

[8] = tested on: AVEFA; assay: Pre-emergence action at 320 g/ha against AVEFA; format: in vivo; conditions: visual scoring after about 3 weeks vs untreated controls
How it was run: as §3

[9] = tested on: MATIN; assay: Pre-emergence action against MATIN, 1280 g/ha; format: in vivo, Tripleurospermum inodorum (Matricaria inodora); conditions: scored visually after about 3 weeks vs untreated controls (100% = plants have died)
How it was run: as §2

[10] = tested on: SETVI; assay: Post-emergence action against SETVI, 1.28 kg/ha; format: in vivo, Setaria viridis; conditions: dosage 1280 g/ha, visual rating about 3 weeks after treatment vs untreated controls
How it was run: as §1

[11] = tested on: ALOMY; assay: Post-emergence action against ALOMY, 320 g/ha; format: in vivo, Alopecurus myosuroides; conditions: dosage 320 g/ha, visual rating about 3 weeks after treatment vs untreated controls (100% = plants died)
Excerpt: (§4) Accordingly, the compounds of the invention have good herbicidal action against a broad spectrum of weed grasses and broad-leaved weeds and are therefore suitable for controlling unwanted vegetation by the post-emergence method. • b) Seeds of monocotyledonous and dicotyledonous weeds and crop plants are placed in sandy loam in plastic or organic planting pots, covered with soil and cultivated in a greenhouse under controlled growth conditions. 2 to 3 weeks after sowing, the test plants are treated at the one-leaf stage. The compounds of the invention, formulated in the form of wettable powders (WP) or as emulsion concentrates (EC), are then sprayed onto the green parts of the plants as aqueous suspension or emulsion with addition of 0.5% additive at a water application rate of 600 l/ha (converted). After the test plants have been kept in the greenhouse under optimum growth conditions for about 3 weeks, the activity of the preparations is rated visually in comparison to untreated controls. For example, 100% activity=the plants have died, 0% activity=like control plants. Tables 39 to 49 below show the effects of selected compounds of the general formula (I) according to Tables 1 and 2 on various harmful plants and at an application rate corresponding to 320 g/ha, which were obtained by the experimental procedure mentioned above.

[12] = tested on: AMARE; assay: Pre-emergence action at 320 g/ha against AMARE; format: in vivo, Amaranthus retroflexus; conditions: visual scoring after about 3 weeks vs untreated controls
How it was run: as §3

[13] = tested on: VIOTR; assay: Pre-emergence action at 320 g/ha against VIOTR; format: in vivo, Viola tricolor; conditions: dosage 320 g/ha
How it was run: as §3

[14] = tested on: VERPE; assay: Post-emergence action against VERPE, 1.28 kg/ha; format: in vivo, Veronica persica; conditions: dosage 1280 g/ha, visual rating about 3 weeks after treatment vs untreated controls (100% = plants died)
How it was run: as §1

[15] = tested on: LOLRI; assay: Pre-emergence action against LOLRI, 1280 g/ha; format: in vivo, Lolium rigidum; conditions: visual scoring after about 3 weeks vs untreated controls, 100% = plants have died, 0% = like control plants
How it was run: as §2

[16] = tested on: AMARE; assay: Post-emergence action against AMARE, 1.28 kg/ha; format: in vivo, Amaranthus retroflexus; conditions: dosage 1280 g/ha, visual rating about 3 weeks after treatment vs untreated controls (100% = plants died)
How it was run: as §1

[17] = tested on: ALOMY; assay: Post-emergence action against ALOMY, 1.28 kg/ha; format: in vivo, Alopecurus myosuroides; conditions: dosage 1280 g/ha, visual rating about 3 weeks after treatment vs untreated controls
How it was run: as §1

[18] = tested on: STEME; assay: Pre-emergence action against STEME, 1280 g/ha; format: in vivo, Stellaria media; conditions: scored visually after about 3 weeks vs untreated controls (100% = plants have died)
How it was run: as §2

[19] = tested on: ECHCG; assay: Post-emergence action against ECHCG, 1.28 kg/ha; format: in vivo, Echinochloa crus-galli; conditions: dosage 1280 g/ha, visual rating about 3 weeks after treatment vs untreated controls
How it was run: as §1

[20] = tested on: POLCO; assay: Pre-emergence action at 320 g/ha against POLCO; format: in vivo, Fallopia convolvulus (Polygonum convolvulus); conditions: visual scoring after about 3 weeks vs untreated controls
How it was run: as §3

[21] = tested on: VERPE; assay: Pre-emergence action at 320 g/ha against VERPE; format: in vivo, Veronica persica; conditions: visual scoring after about 3 weeks vs untreated controls
How it was run: as §3

[22] = tested on: ALOMY; assay: Pre-emergence action at 320 g/ha against ALOMY; format: in vivo, Alopecurus myosuroides; conditions: scored visually after about 3 weeks vs untreated controls (100% = plants have died)
How it was run: as §3

[23] = tested on: SETVI; assay: Pre-emergence action against SETVI, 1280 g/ha; format: in vivo, Setaria viridis; conditions: visual scoring after about 3 weeks vs untreated controls, 100% = plants have died, 0% = like control plants
How it was run: as §2

[24] = tested on: ALOMY; assay: Pre-emergence action against ALOMY, 1280 g/ha; format: in vivo, Alopecurus myosuroides; conditions: visual scoring after about 3 weeks vs untreated controls, 100% = plants have died, 0% = like control plants
How it was run: as §2

[25] = tested on: DIGSA; assay: Post-emergence action against DIGSA, 1.28 kg/ha; format: in vivo, Digitaria sanguinalis; conditions: dosage 1280 g/ha, visual rating about 3 weeks after treatment vs untreated controls
How it was run: as §1

[26] = tested on: SETVI; assay: Post-emergence action at 320 g/ha against SETVI; format: in vivo, Setaria viridis; conditions: visual rating about 3 weeks after treatment vs untreated controls
Excerpt: as §4

[27] = tested on: ECHCG; assay: Pre-emergence action against ECHCG, 1280 g/ha; format: in vivo, Echinochloa crus-galli; conditions: visual scoring after about 3 weeks vs untreated controls, 100% = plants have died, 0% = like control plants
How it was run: as §2

[28] = tested on: VERPE; assay: Pre-emergence action against VERPE, 1280 g/ha; format: in vivo, Veronica persica; conditions: scored visually after about 3 weeks vs untreated controls (100% = plants have died)
How it was run: as §2

[29] = tested on: LOLRI; assay: Pre-emergence action at 320 g/ha against LOLRI; format: in vivo, Lolium rigidum; conditions: visual scoring after about 3 weeks vs untreated controls
How it was run: as §3

[30] = tested on: DIGSA; assay: Pre-emergence action against DIGSA, 1280 g/ha; format: in vivo, Digitaria sanguinalis; conditions: visual scoring after about 3 weeks vs untreated controls, 100% = plants have died, 0% = like control plants
How it was run: as §2

[31] = tested on: ECHCG; assay: Post-emergence action at 320 g/ha against ECHCG; format: in vivo, Echinochloa crus-galli; conditions: dosage 320 g/ha, visual rating about 3 weeks after treatment vs untreated controls (100% = plants died)
Excerpt: as §4

[32] = tested on: DIGSA; assay: Pre-emergence action at 320 g/ha against DIGSA; format: in vivo, Digitaria sanguinalis; conditions: visual scoring after about 3 weeks vs untreated controls
How it was run: as §3

CCOC(=O)COc1nn(-c2ccccc2C)c(-c2ccc(F)nc2)c1Br [VII-056-a]
Post-emergence action against POAAN [1]: 100%
Pre-emergence action against POAAN [2]: 100%
Pre-emergence action against AMARE [3]: 100%
Post-emergence action against ABUTH [4]: 90%
Post-emergence action against MATIN [5]: 100%
Post-emergence action against LOLRI [6]: 100%
Pre-emergence action against MATIN in % [7]: 80%
Pre-emergence action against AVEFA in % [8]: 90%
Pre-emergence action against MATIN [9]: 100%
Post-emergence action against SETVI [10]: 100%
Post-emergence action against ALOMY [11]: 90%
Pre-emergence action against AMARE in % [12]: 100%
Pre-emergence action against VIOTR in % [13]: 100%
Post-emergence action against VERPE [14]: 100%
Pre-emergence action against LOLRI [15]: 90%
Post-emergence action against AMARE [16]: 100%
Post-emergence action against ALOMY [17]: 100%
Pre-emergence action against STEME [18]: 100%
Post-emergence action against ECHCG [19]: 100%
Pre-emergence action against POLCO in % [20]: 90%
Pre-emergence action against VERPE in % [21]: 100%
Pre-emergence action at 320 g/ha against ALOMY in % [22]: 100%
Pre-emergence action against SETVI [23]: 100%
Pre-emergence action against ALOMY [24]: 90%
Post-emergence action against DIGSA [25]: 100%
Post-emergence action against SETVI in % [26]: 80%
Pre-emergence action against ECHCG [27]: 100%
Pre-emergence action against VERPE [28]: 100%
Pre-emergence action against LOLRI in % [29]: 90%
Pre-emergence action against DIGSA [30]: 100%
Post-emergence action at 320 g/ha against ECHCG in % [31]: 80%
Pre-emergence action against DIGSA in % [32]: 100%
